Each structure is given as a SMILES string. Read-outs that look alike come from different tables or passages of the source.

For series [1] the following is noted: 536 patients, up to 360 mg idebenone t.i.d.; cited from earlier work.
Series [2] is described as follows: Pharmacokinetics after sublingual (oromucosal) vs. oral delivery of idebenone micro-emulsion in dogs. It is filed as in vivo, Beagle dogs. Conditions: for Cmax / Tmax / AUC(0-t): beagle, dog, mean; for AUC(0-t): read-out: AUC0-480 of idebenone (converted). The method, then: Quantification of idebenone was performed by liquid chromatography (LC) coupled on-line with tandem mass spectrometry (MS/MS). Calibration samples were prepared in human plasma and quality control (QC) samples were prepared in dog plasma.
150 μl of dog plasma were treated with 10 μl of an EDTA solution, prepared by dissolution of 1245 mg EDTA-potassium salt in 33 ml of 1M NH4OAc, and 300 μl of Methanol. After vigorous shaking, samples were centrifuged for 45 minutes with 1960 RCF at 4° C. A 50 μl aliquot of the supernatant was injected into the LC-MS/MS system. All unknown, calibration and QC samples were subjected to the same assay procedure.
Idebenone was separated and quantified by HPLC-MS/MS: For HPLC, a Synergi™ 4μ MAX-RP (50×2 mm) column (Phenomenex, Schlieren, Switzerland) was used. Column temperature: 50° C. Mobile phase A: water+30 mM NH4OAc; mobile phase B: MeOH/H2O 100/3 (v/v)+30 mM NH4OAc, gradient elution (table 4). Flow: 250 μl/min and 400 μl/min.
Once separated, idebenone was quantified by ESI-MS/MS (API 4000, Perkin-Elmer-Europe BV, Rotkreuz, Switzerland) in positive mode.
Idebenone conjugates such as glucuronates and sulphates have been quantified after acidic hydrolysis as described by R. Artuch, C. Colomé, M. A. Vilaseca, A. Aracil. M. Pineda, J. Neurosci. Meth. 115 (2002), 63-66.
Plasma levels of idebenone were studied after the administration of a micro-emulsion, prepared as described in example 1, to dogs (n=3). The sublingual administration of 4 mg/kg was compared with 40 mg/kg oral administration in a cross-over design. Blood samples were collected for 8 hours after administration. Concentrations of idebenone in plasma were measured by HPLC-MS/MS as described in example 4 and pharmacokinetic parameters were calculated.
The pharmacokinetic analysis included maximum plasma concentration (Cmax), the time when maximum plasma concentration was observed (Tmax), and the area under the plasma concentrations versus time curve from time 0 h to 480 min (AUC0-480min). The relative bioavailability of idebenone after sublingual administration compared to the oral administration was calculated for each dog from normalized (1 mg/kg) AUC values. The AUC ratios of the metabolites were also calculated. In addition, Cmax ratios, normalized to a 1 mg/kg dose, were calculated.

The nature of series [3]: First-pass hepatic metabolism of idebenone after oral administration. Conditions: after absorption in the gut (oral administration). It is filed as in vivo. From the text:
As a lipophilic compound idebenone is well absorbed in the gastrointestinal tract after conventional oral administration, which is the normal route for administering said compound. Dosage forms such as tablets or capsules have been used in clinical trials and as marketed product. In the course of our investigations on the pharmacological profile of idebenone, we discovered that the compound, after being absorbed in the gut, is metabolized very quickly during its first passage through the liver (“first-pass-effect”). […] Hepatic metabolism of idebenone results in side chain oxidation, reduction of the quinone ring, sulphate and glucuronide conjugation and subsequent renal excretion. The high first-pass-effect leads to a fast reduction of pharmacologically active plasma levels of free idebenone. Because of this strong first pass metabolism, oral administration of idebenone requires high doses of the compound to achieve pharmacologically efficacious plasma levels in the body. Said high doses can result in unwanted side effects such as diarrhea.

The mark [4] stands for this setting: 4 mg/kg oro-mucosal (sublingual), micro-emulsion of example 1, dogs n=3, plasma.
Setting [5] is: 40 mg/kg oral (p.o.), dogs n=3, plasma.
[6] abbreviates: oromucosal (4 mg/kg) vs. oral (40 mg/kg), normalized to a 1 mg/kg dose, dogs.

In the case of `COC1=C(OC)C(=O)C(CCCCCCCCCCO)=C(C)C1=O` [idebenone, 2,3-dimethoxy-5-methyl-6-(10-hydroxydecyl)-1,4-benzoquinone], the “treatment emergent adverse events compared to placebo” value in series [1] was “no treatment emergent adverse events except some gastrointestinal irritations as well as a slight increase in orthopedic events”. In addition, in series [2] (setting [4]), the Cmax is 106 ng/mL, the Tmax is 6.3 min and the AUC(0-t) was 21.1 ng·h/mL. Also, in series [2] (setting [5]), the Cmax amounted to 31.9 ng/mL, the Tmax is 22.7 min and the AUC(0-t) was 18 ng·h/mL. In series [2] (setting [6]), the “AUC ratio, idebenone (normalized for dose)” value is on record as 11.1 and the “Cmax ratio, idebenone (normalized for dose)” value is given as 36.8. Moreover, the “idebenone metabolized during its first passage through the liver” value in series [3] is on record as “more than 98%”.

The values above are taken from patent US20090208425A1, “TRANSMUCOSAL ADMINISTRATION OF 2,3-DIMETHOXY-5-METHYL-6-(10-HYDROXYDECYL)-1,4-BENZOQUINONE” (SANTHERA PHARMACEUTICALS (SCHWEIZ) AG, priority 2006, published 2009).
